{"source": "ChEMBL document CHEMBL5728306", "about": "“Spirocyclic compounds” (2021)", "target": "Mitogen-activated protein kinase 1 (Homo sapiens, UniProt P28482)", "sequence (P28482 whole entry)": "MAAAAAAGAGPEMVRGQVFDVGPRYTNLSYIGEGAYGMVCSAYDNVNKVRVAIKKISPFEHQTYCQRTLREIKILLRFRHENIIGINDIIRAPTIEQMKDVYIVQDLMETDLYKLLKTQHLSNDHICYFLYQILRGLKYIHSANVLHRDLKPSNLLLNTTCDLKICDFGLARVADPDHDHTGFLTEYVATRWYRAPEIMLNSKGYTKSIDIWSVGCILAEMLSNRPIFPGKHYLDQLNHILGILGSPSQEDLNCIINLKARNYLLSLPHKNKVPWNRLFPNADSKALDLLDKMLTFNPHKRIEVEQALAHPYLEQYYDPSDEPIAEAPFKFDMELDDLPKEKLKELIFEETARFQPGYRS", "test": "ERK1 & ERK2 were then activated by the addition of F1-Substrate, ATP and metal solution and incubated for 1 h at rt. After 1 h, the reaction was terminated by the addition of […] of Termination Buffer (QuickScout Screening Assist MSA; Carna Biosciences) to the well."}
{"smiles": "Cc1ncc(-c2n[nH]c3ccc(N4CC[C@]5(CCN(CC(=O)N6CC=C(c7ccc(-c8ncn(C)n8)cc7)CC6)C5)C4=O)nc23)s1", "values": [{"measurement": "IC50", "value": "< 50", "unit": "nM"}]}
